Common to all, as to format: cell-based
A short description of assay [1]: Inhibition of RPMI-8226 cell proliferation (CellTiter luminescent viability). To be noted: Homo sapiens; Table IA4, IRAK4 inhibitor-based; RPMI-8226, 10 nM, 96 hours; read-out: Inhibition Rate at 10 nM (%). As for the experimental part:
(§1) The tumor cells used herein were cultured in a cell culture medium listed in table 3 at 37 °C in an incubator with 5% CO2. Prior to experimentation, all cell lines used were correctly identified by STR profiling, and tested negative for mycoplasma contamination using a mycoplasma detection kit through routine screenings.
(§2) The IC50 values of the compounds of the present disclosure (including the compounds in Table 1, Table 2, and Examples 1-468) were determined using the CellTiter-Meiluncell Luminescent Cell Viability Assay Kit from Dalian Meilun Biotech Co., Ltd. The detailed procedure is as follows: Tumor cells were seeded in 96-well cell culture plates at the densities specified in Table 4. On the following day, the test compounds of the present disclosure were subjected to serial dilution. The dilution can be performed according to one of the following two methods: • (1) The first dilution method: The test compounds of the present disclosure (including the compounds in Table 1, Table 2, and Examples 1-468) were subjected to 5-fold serial dilutions starting from a highest concentration of 2000 μM, resulting in a total of 9 concentrations from high to low (2000, 400, 80, 16, 3.2, 0.64, 0.128, 0.0256, 0.00512 μM). Subsequently, 0.5 μL of the test compound dilution was transferred into the 96-well plate containing the cells, with each well containing 100 μL of cell culture medium. […] Into the 96-well plate, the diluted test compounds and corresponding detection reagents were added, resulting in final test compound concentrations of 500 nM and 10 nM, respectively. The experimental procedure is described below using the diluted 2 μM test compound as an example.
(§3) 0.5 μL of the aforementioned diluted compound of the present disclosure (including the compounds in Table 1, Table 2, and Examples 1-468) was added to the seeded cells in 100 μL of medium, yielding a final test compound concentration of 10 nM. After the cells were treated with the compounds of the present disclosure for a specified period, the cell viability assay reagent was added to the culture medium according to the kit's instructions to determine cell viability. […] All controls were treated using the same procedure as the compounds of the present disclosure. The growth inhibition curves for the compounds of the present disclosure were plotted using Prism GraphPad software, and the IC50 values were calculated therefrom.

For assay [2], the system named is Human B-Cell Lymphoma Cells (RPMI-8226). Described as above. To be noted: Table IA4, IRAK4 inhibitor-based, RPMI-8226, 500 nM, 96 hours, read-out: Inhibition Rate at 500 nM (%). The procedure:
as §1, §2, §3

A further assay has as its target T1, IRAK4 (Homo sapiens, UniProt Q9NWZ3).
T1 construct: expression of target proteins in cells; endogenous in cells
T1 sequence (Q9NWZ3 1-460): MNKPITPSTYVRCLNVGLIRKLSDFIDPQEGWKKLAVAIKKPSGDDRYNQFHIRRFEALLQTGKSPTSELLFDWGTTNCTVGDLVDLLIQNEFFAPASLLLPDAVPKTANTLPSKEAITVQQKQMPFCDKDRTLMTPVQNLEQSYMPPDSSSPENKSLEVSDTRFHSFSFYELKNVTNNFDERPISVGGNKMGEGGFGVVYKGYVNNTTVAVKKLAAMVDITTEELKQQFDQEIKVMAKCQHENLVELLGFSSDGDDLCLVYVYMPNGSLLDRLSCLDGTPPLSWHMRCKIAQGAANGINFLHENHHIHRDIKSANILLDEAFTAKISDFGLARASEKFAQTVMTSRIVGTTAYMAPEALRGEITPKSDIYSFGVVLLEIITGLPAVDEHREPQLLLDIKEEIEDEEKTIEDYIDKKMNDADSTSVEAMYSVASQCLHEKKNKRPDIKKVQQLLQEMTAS
Put plainly: Western blot degradation of IRAK4. To be noted: hPBMC Cell; 24 hours. The method, boiled down:
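Immunoblot of drug-treated versus DMSO-treated cell lysates, with densitometric quantification. Values: DC50 (50% band loss, fitted) and loading-control-normalised % remaining or degradation.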
On the technique in general: In western blotting, separated proteins are transferred to a membrane and probed.

The subject of assay [3] is Human Multiple myeloma cell line (MM.1S). Put plainly: Inhibition of MM.1S cell proliferation (CellTiter luminescent viability). To be noted: Homo sapiens, MM1.S, Table IA5, IRAK4 inhibitor-based, 96 hours. The method in brief:
(§4)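 Cells are seeded in 96-well plates, cultured at 37 °C, 5% CO2, and treated next day with 5-fold serial compound dilutions (stock series from 2000 μM; 0.5 μL into 100 μL medium). Viability is read by CellTiter-Meiluncell luminescence after the set exposure, and IC50 is taken from growth-inhibition curves.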

Assay [4] deals with Human myeloid monocytic leukemia cell line (MV-4-11). Put plainly: Inhibition of MV-4-11 cell proliferation (CellTiter luminescent viability). The conditions noted are these: Homo sapiens, MV4-11, Table IA3, IRAK4 inhibitor-based, 96 hours; for inhibition at 0.01 µM: MV-4-11, 10 nM, read-out: Inhibition Rate at 10 nM (%); for inhibition at 0.5 µM: MV-4-11, 500 nM, read-out: Inhibition Rate at 500 nM (%). The method, boiled down: as §4

The source of these data is US20260364184A1, “COMPOUND BASED ON OXOISOINDOLINYL-SUBSTITUTED TETRAHYDROPYRIMIDINE-DIONE AND USE THEREOF” (GLUETACS THERAPEUTICS (SHANGHAI) CO., LTD., priority 2023, published 2026).

As a reminder, the inhibition is the drop in the measured response relative to a control, in per cent.

With `O=C1CCN(N2C(=O)c3cc(F)c(N4CCN(C[C@H]5CC[C@H](n6cc(NC(=O)c7cnn8ccc(N9C[C@H]%10C[C@@H]9CO%10)nc78)c(C(F)F)n6)CC5)CC4)cc3C2=O)C(=O)N1` [GT-05239, 5-((1R,4R)-2-oxa-5-azabicyclo[2.2.1]heptan-5-yl)-N-(3-(difluoromethyl)-1-((1r,4R)-4-((4-(2-(2,4-dioxotetrahydropyrimidin-1(2H)-yl)-6-fluoro-1,3-dioxoisoindolin-5-yl)piperazin-1-yl)methyl)cyclohexyl)-1H-pyrazol-4-yl)pyrazolo[1,5-a]pyrimidine-3-carboxamide], the inhibition at 0.01 µM in assay [1] lay within 30 to 40%. The inhibition at 0.5 µM in assay [2] lay in the range of 20 to 25%. In addition, at IRAK4, the “Degradation of substrate protein IRAK4 (substrate protein remaining %)” value (“Degradation … (substrate protein remaining %)” below) is “A (0%≤substrate protein remaining %≤80%)”.
Consider `CC(C)Nc1cc(-n2ccc3cc(C#N)cnc32)ncc1C(=O)NC1CCN(Cc2ccc3c(c2)CN(N2CCC(=O)NC2=O)C3=O)CC1` [GT-05319, 6-(5-cyano-1H-pyrrolo[2,3-b]pyridin-1-yl)-N-(1-((2-(2,4-dioxotetrahydropyrimidin-1(2H)-yl)-1-oxoisoindolin-5-yl)methyl)piperidin-4-yl)-4-((isopropyl)amino) nicotinamide], for which the inhibition at 0.01 µM in assay [1] was in the range of 30 to 40%; in assay [3] (10 nM, read-out: Inhibition Rate at 10 nM (%)) it was 30 to 40%. In addition, the inhibition at 0.5 µM in assay [2] lay in the range of 40 to 60%; in assay [3] (500 nM, read-out: Inhibition Rate at 500 nM (%)), 30 to 40%. The “Degradation … (substrate protein remaining %)” value at IRAK4 is “A (0%≤substrate protein remaining %≤80%)”.
As to `Cc1cc(-c2nc(C(=O)Nc3cc4oc(N5CCN(CC6CCN(c7cccc8c7C(=O)N(N7CCC(=O)NC7=O)C8=O)CC6)CC5)nc4nc3N3CC[C@@H](O)C3)co2)ccn1` [GT-05806, (R)—N-(2-(4-((1-(2-(2,4-dioxotetrahydropyrimidin-1(2H)-yl)-1,3-dioxoisoindolin-4-yl)piperidin-4-yl)methyl)piperazin-1-yl)-5-(3-hydroxypyrrolidin-1-yl)oxazolo[4,5-b]pyridin-6-yl)-2-(2-methylpyridin-4-yl) oxazole-4-carboxamide], the inhibition at 0.01 µM in assay [1] lay in the range of 20 to 25%; in assay [4] it was 45 to 50%. Further, the inhibition at 0.5 µM in assay [2] lay in the range of 25 to 30%; in assay [4] it was 80 to 100%. In addition, the “Degradation … (substrate protein remaining %)” value at IRAK4 is on record as “A (0%≤substrate protein remaining %≤80%)”.
For `O=C1CCN(N2C(=O)c3ccc(N4CCC(N5CCC(CN6CCC(n7cc(NC(=O)c8cnn9ccc(N%10C[C@H]%11C[C@@H]%10CO%11)nc89)c(C(F)F)n7)CC6)CC5)CC4)cc3C2=O)C(=O)N1` [GT-05816, 5-((1R,4R)-2-oxa-5-azabicyclo[2.2.1]heptan-5-yl)-N-(3-(difluoromethyl)-1-(1-((1′-(2-(2,4-dioxotetrahydropyrimidin-1(2H)-yl)-1,3-dioxoisoindolin-5-yl)-[1,4′-bipiperidin]-4-yl)methyl)piperidin-4-yl)-1H-pyrazol-4-yl)pyrazolo[1,5-a]pyrimidine-3-carboxamide], the inhibition at 0.01 µM in assay [1] was 30 to 40%; in assay [4], -10 to -5%. Moreover, the inhibition at 0.5 µM in assay [2] fell in the range of 15 to 20%; in assay [4], 50 to 60%. Besides, the “Degradation … (substrate protein remaining %)” value on IRAK4 is “A (0%≤substrate protein remaining %≤80%)”.
The corresponding values for `CC(C)(O)c1cc2nc(C3CCN(CC4CCN(c5cccc6c5C(=O)N(N5CCC(=O)NC5=O)C6=O)CC4)CC3)sc2cc1NC(=O)c1cccc(C(F)(F)F)n1` [GT-05818, N-(2-(1-((1-(2-(2,4-dioxotetrahydropyrimidin-1(2H)-yl)-1,3-dioxoisoindolin-4-yl)piperidin-4-yl)methyl)piperidin-4-yl)-5-(2-hydroxypropan-2-yl)benzo[d]thiazol-6-yl)-6-(trifluoromethyl) picolinamide] are 20 to 25%, 10 to 20%, 10 to 15%, 50 to 60% and “A (0%≤substrate protein remaining %≤80%)”.
Turning to `CC(C)(O)c1cc2nc(C3CCN(CC4CCN(c5ccc6c(c5)C(=O)N(N5CCC(=O)NC5=O)C6=O)CC4)CC3)sc2cc1NC(=O)c1cccc(C(F)(F)F)n1` [GT-05819, N-(2-(1-((1-(2-(2,4-dioxotetrahydropyrimidin-1(2H)-yl)-1,3-dioxoisoindolin-5-yl)piperidin-4-yl)methyl)piperidin-4-yl)-5-(2-hydroxypropan-2-yl)benzo[d]thiazol-6-yl)-6-(trifluoromethyl) picolinamide], the inhibition at 0.01 µM in assay [1] fell in the range of 15 to 20%. Further, the inhibition at 0.5 µM in assay [2] lay within 25 to 30%. The “Degradation … (substrate protein remaining %)” value at IRAK4 is recorded as “A (0%≤substrate protein remaining %≤80%)”.
`O=C1CCN(N2C(=O)c3ccc(N4CC5CCC(C4)N5C[C@H]4CC[C@H](n5cc(NC(=O)c6cnn7ccc(N8C[C@H]9C[C@@H]8CO9)nc67)c(C(F)F)n5)CC4)cc3C2=O)C(=O)N1` [GT-05825, 5-((1R,4R)-2-oxa-5-azabicyclo[2.2.1]heptan-5-yl)-N-(3-(difluoromethyl)-1-((1r,4R)-4-((3-(2-(2,4-dioxotetrahydropyrimidin-1(2H)-yl)-1,3-dioxoisoindolin-5-yl)-3,8-diazabicyclo[3.2.1]octan-8-yl)methyl)cyclohexyl)-1H-pyrazol-4-yl)pyrazolo[1,5-a]pyrimidine-3-carboxamide]: the inhibition at 0.01 µM in assay [1] was in the range of 15 to 20%. In addition, the inhibition at 0.5 µM in assay [2] was in the range of 25 to 30%. In addition, the “Degradation … (substrate protein remaining %)” value at IRAK4 is reported as “A (0%≤substrate protein remaining %≤80%)”.
The corresponding values for `COc1cc2nn([C@H]3CC[C@H](CN4C5CC4CN(c4ccc6c(c4)C(=O)N(N4CCC(=O)NC4=O)C6=O)C5)CC3)cc2cc1NC(=O)c1cccc(C(F)(F)F)n1` [GT-08653, N-(2-((1r,4r)-4-((3-(2-(2,4-dioxotetrahydropyrimidin-1(2H)-yl)-1,3-dioxoisoindolin-5-yl)-3,6-diazabicyclo[3.1.1]heptan-6-yl)methyl)cyclohexyl)-6-methoxy-2H-indazol-5-yl)-6-(trifluoromethyl) picolinamide] are 15 to 20%, 25 to 30% and “A (0%≤substrate protein remaining %≤80%)”.
As for `COc1cc2nn([C@H]3CC[C@H](CN4CCN(c5cccc6c5C(=O)N(N5CCC(=O)NC5=O)C6=O)CC4)CC3)cc2cc1NC(=O)c1cccc(C(F)(F)F)c1` [GT-08668, N-(2-((1r,4r)-4-((4-(2-(2,4-dioxotetrahydropyrimidin-1(2H)-yl)-1,3-dioxoisoindolin-4-yl)piperazin-1-yl)methyl)cyclohexyl)-6-methoxy-2H-indazol-5-yl)-3-(trifluoromethyl)benzamide], in assay [1], the inhibition at 0.01 µM is 20 to 25%. For the same compound, in assay [2], the inhibition at 0.5 µM lay in the range of 30 to 40%. Besides, the “Degradation … (substrate protein remaining %)” value on IRAK4 was “A (0%≤substrate protein remaining %≤80%)”.
